Assay results as given in the supplement of paper PMC10307832.

Experiments:
Assay in all cases: relative viability (nuclei count vs DMSO), 5 days (fraction); higher = more cells survive
[1] = compound: COc1cc2ncn(-c3cc(OCc4ccccc4C(F)(F)F)c(C(N)=O)s3)c2cc1OC + Cc1nc(Nc2ncc(C(=O)Nc3c(C)cccc3Cl)s2)cc(N2CCN(CCO)CC2)n1 [Dasatinib] (partner 0.075 µM)
Method in brief: (§1)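 Lung cancer cell lines in 1536-well plates got either a single drug or a fixed anchor-drug dose together with five library-drug doses (not always all listed) in √10 steps, by pin tool, on the day after seeding. Nuclei were counted after 5 days, and relative viability is the treated-to-vehicle ratio of nuclei counts. Values are medians of duplicate plates.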

[2] = compound: COc1cc2ncn(-c3cc(OCc4ccccc4C(F)(F)F)c(C(N)=O)s3)c2cc1OC + CC1(C)CCC(c2ccc(Cl)cc2)=C(CN2CCN(c3ccc(C(=O)NS(=O)(=O)c4ccc(N[C@H](CCN5CCOCC5)CSc5ccccc5)c(S(=O)(=O)C(F)(F)F)c4)cc3)CC2)C1 [Navitoclax] (partner 0.5 µM)
Method in brief: as §1

[3] = compound: COc1cc2ncn(-c3cc(OCc4ccccc4C(F)(F)F)c(C(N)=O)s3)c2cc1OC + CC(C)C[C@H](NC(=O)[C@H](Cc1ccccc1)NC(=O)c1cnccn1)B(O)O [Bortezomib] (partner 0.002 µM)
Method in brief: as §1

[4] = compound: COc1cc2ncn(-c3cc(OCc4ccccc4C(F)(F)F)c(C(N)=O)s3)c2cc1OC + CCNC(=O)c1noc(-c2cc(C(C)C)c(O)cc2O)c1-c1ccc(CN2CCOCC2)cc1 [Luminespib] (partner 0.01 µM)
Method in brief: as §1

Cell Line	relative viability ([1]; first compound 0.05 µM)	relative viability ([1]; first compound 0.1581 µM)	relative viability ([1]; first compound 0.5 µM)	relative viability ([1]; first compound 1.581 µM)	relative viability ([1]; first compound 5 µM)	relative viability ([2]; first compound 0.05 µM)	relative viability ([2]; first compound 0.1581 µM)	relative viability ([2]; first compound 0.5 µM)	relative viability ([2]; first compound 1.581 µM)	relative viability ([2]; first compound 5 µM)	relative viability ([3]; first compound 0.05 µM)	relative viability ([3]; first compound 0.1581 µM)	relative viability ([3]; first compound 0.5 µM)	relative viability ([3]; first compound 1.581 µM)	relative viability ([3]; first compound 5 µM)	relative viability ([4]; first compound 0.05 µM)	relative viability ([4]; first compound 0.1581 µM)	relative viability ([4]; first compound 0.5 µM)	relative viability ([4]; first compound 1.581 µM)	relative viability ([4]; first compound 5 µM)
201T	0.543	0.536	0.546	0.45	0.244	1.26	1.2	1.19	0.902	0.326	1.12	1.13	1.12	0.902	0.365	1.07	1.08	1	0.689	0.28
A-427	0.839	0.501	0.602	0.175	0.088	1.06	0.991	0.79	0.331	0.173	1.05	1.05	0.752	0.258	0.251	0.998	0.973	0.617	0.246	0.114
ABC-1	0.539	0.542	0.469	0.276	0.239	–	–	–	–	–	0.304	0.294	0.281	0.242	0.233	0.709	0.679	0.255	0.311	0.263
BEN	0.363	0.327	0.29	0.186	0.229	0.0682	0.0597	0.0733	0.0523	0.0519	0.911	0.476	0.801	0.253	0.244	0.398	0.522	0.227	0.21	0.214
CAL-12T	0.415	0.249	0.0865	0.105	0.122	1.09	1.11	0.573	0.231	0.148	0.944	0.821	0.608	0.242	0.199	0.858	0.44	0.446	0.217	0.102
COR-L23	0.434	0.364	0.203	0.102	0.0618	1	0.897	0.38	0.0788	0.091	0.937	0.933	0.689	0.126	0.111	0.363	0.604	0.249	0.104	0.0965
COR-L 105	0.337	0.33	0.273	0.22	0.19	0.837	0.779	0.509	0.259	0.24	0.727	0.763	0.529	0.271	0.269	0.828	0.846	0.616	0.312	0.245
Calu-6	–	–	–	–	–	0.693	0.513	0.136	0.0798	0.0903	0.805	0.69	0.203	0.116	0.117	–	–	–	–	–
ChaGo-K-1	0.629	0.332	0.574	0.17	0.138	0.964	0.535	0.939	0.378	0.273	0.98	0.727	1.03	0.427	0.272	0.617	0.516	0.285	0.18	0.14
EBC-1	–	–	–	–	–	0.36	0.283	0.123	0.119	0.153	0.454	0.439	0.208	0.139	0.159	–	–	–	–	–
EKVX	0.661	0.604	0.425	0.271	0.224	0.96	0.814	0.91	0.35	0.486	1.1	0.773	0.991	0.195	0.487	1	1.01	0.64	–	0.578
EMC-BAC-2	0.328	0.361	0.296	0.168	0.139	1.2	1.14	1.07	0.766	0.178	1.19	1.08	0.925	0.416	0.278	1.19	1.22	0.931	0.569	0.219
EPLC-272H	–	0.408	0.142	0.0755	0.103	1.12	0.982	0.255	0.0998	0.0968	1.05	0.82	0.567	0.0851	0.135	–	0.31	0.115	0.111	0.153
H3255	0.346	0.349	0.344	–	0.279	0.558	0.314	0.363	0.125	0.101	0.793	0.746	0.708	0.363	0.242	0.861	0.924	0.757	–	0.518
HARA	0.242	0.299	0.284	0.0989	0.0669	1.18	1.06	0.531	0.26	0.0692	1.09	0.986	1.02	0.215	0.0851	0.951	0.654	0.238	0.0482	0.0507
HCC-15	0.582	0.548	0.242	0.105	0.0655	0.695	0.641	0.316	0.104	0.0943	0.99	0.89	0.785	0.142	0.114	0.312	0.291	0.149	0.101	0.0855
HCC-44	–	–	–	–	–	1	0.913	0.187	0.121	0.0869	0.949	0.874	0.714	0.127	0.107	0.854	1.13	0.613	0.168	0.132
HCC-78	0.463	0.537	0.306	0.317	0.206	0.752	0.773	0.498	0.51	0.63	0.472	0.496	0.39	0.238	0.227	–	–	–	–	–
HCC-366	0.675	0.67	0.338	0.0209	0.0192	1.03	1.03	0.313	0.0106	0.0086	1.12	1.04	0.646	0.018	0.0097	–	–	–	–	–
HCC-827	0.321	0.359	0.222	0.293	0.292	0.988	0.99	0.874	0.287	0.201	1.06	0.98	1.02	0.776	0.508	0.335	0.683	0.372	0.194	0.161

Cell Line	relative viability ([1]; first compound 0.05 µM)	relative viability ([1]; first compound 0.1581 µM)	relative viability ([1]; first compound 0.5 µM)	relative viability ([1]; first compound 1.581 µM)	relative viability ([1]; first compound 5 µM)	relative viability ([2]; first compound 0.05 µM)	relative viability ([2]; first compound 0.1581 µM)	relative viability ([2]; first compound 0.5 µM)	relative viability ([2]; first compound 1.581 µM)	relative viability ([2]; first compound 5 µM)	relative viability ([3]; first compound 0.05 µM)	relative viability ([3]; first compound 0.1581 µM)	relative viability ([3]; first compound 0.5 µM)	relative viability ([3]; first compound 1.581 µM)	relative viability ([3]; first compound 5 µM)	relative viability ([4]; first compound 0.05 µM)	relative viability ([4]; first compound 0.1581 µM)	relative viability ([4]; first compound 0.5 µM)	relative viability ([4]; first compound 1.581 µM)	relative viability ([4]; first compound 5 µM)
HOP-62	0.653	0.694	0.597	0.15	0.114	0.92	0.984	0.843	0.232	0.814	0.977	1.2	0.507	0.178	0.124	0.966	0.638	0.708	0.176	0.123
IA-LM	–	–	–	–	–	0.89	0.411	0.0188	0.0121	0.0246	0.747	0.479	0.0694	0.0622	0.0584	–	–	–	–	–
LC-2-ad	0.639	0.594	0.201	0.123	0.133	0.359	0.209	0.0767	0.0906	0.0667	0.866	0.516	0.399	0.108	0.106	0.759	0.857	0.515	0.293	0.29
LCLC-97TM1	0.743	0.74	0.761	0.214	0.128	0.4	0.502	0.307	0.141	0.0841	0.77	0.71	0.354	0.0568	0.0894	0.757	0.719	0.415	0.167	0.197
LCLC-103H	0.466	0.522	0.341	0.176	0.175	–	–	–	–	–	1	1.03	0.744	0.522	0.208	0.771	0.927	0.594	0.273	0.151
LK-2	0.282	0.369	0.262	0.154	0.151	0.867	0.732	0.266	0.117	0.133	–	–	–	–	–	0.194	0.204	0.157	0.152	0.173
LOU-NH91	0.6	0.599	0.459	0.31	0.387	0.715	0.816	0.592	0.445	0.399	0.434	0.368	0.405	0.348	0.346	0.358	0.385	0.308	0.278	0.301
NCI-H358	0.151	0.195	0.185	0.0783	0.0726	–	–	–	–	–	–	–	–	–	–	0.26	0.378	0.29	0.102	0.13
NCI-H650	0.468	0.429	0.32	0.166	0.261	–	–	–	–	–	0.89	0.78	0.512	0.163	0.214	0.748	0.759	0.632	0.118	0.37
NCI-H661	0.986	0.779	0.312	0.293	0.171	–	–	–	–	–	0.818	0.819	0.485	0.217	0.257	0.812	0.872	0.528	0.255	0.212
NCI-H1299	–	–	–	–	–	1.06	1.09	0.833	0.232	0.238	0.985	1.01	0.856	0.263	0.675	–	–	–	–	–
NCI-H1395	0.413	0.438	0.455	0.358	0.306	1.17	1.17	0.611	0.447	0.384	–	–	–	–	–	0.753	0.814	0.579	0.321	0.359
NCI-H1563	0.51	0.506	0.454	0.44	0.349	–	–	–	–	–	0.985	1.01	0.807	0.676	0.592	0.587	0.501	0.513	0.474	0.4
NCI-H1703	–	–	–	–	–	1.38	1.28	0.509	0.124	0.0953	0.384	0.339	0.172	0.0978	0.173	–	–	–	–	–
NCI-H1793	0.379	0.382	0.3	0.15	0.141	0.928	0.544	0.187	0.221	0.139	–	–	–	–	–	0.163	0.194	0.176	0.15	0.128
NCI-H1944	0.227	0.223	0.191	0.127	0.109	1.04	1.06	0.785	0.189	0.123	–	–	–	–	–	0.512	0.705	0.543	0.177	0.0836
NCI-H2170	0.545	0.406	0.374	0.163	0.156	0.539	0.492	0.202	0.168	0.162	–	–	–	–	–	0.4	0.845	0.415	0.189	0.177
NCI-H2342	0.325	0.354	0.279	0.278	0.237	–	–	–	–	–	–	–	–	–	–	0.757	0.752	0.715	0.597	0.545
SK-MES-1	0.338	0.367	0.184	0.129	0.116	1.14	1.25	0.519	0.119	0.127	–	–	–	–	–	0.725	0.83	0.266	0.167	0.182
